Reference: patent US12692232B2, “Indole carboxamide compound, preparation therefor and use thereof” (NANJING RUISHUNING MEDICAL TECHNOLOGY CO., LTD., priority 2021, dated 2026)

What was measured:
[1] = target: T1, TRPC6 channel (Homo sapiens, UniProt Q9Y210); test: In vitro binding to TRPC6 protein by microscale thermophoresis (MST); parameters: fused on or other part: NT-647-NHS fluorescent dye label (chemical labelling for MST)
T1 sequence (Q9Y210 1-931): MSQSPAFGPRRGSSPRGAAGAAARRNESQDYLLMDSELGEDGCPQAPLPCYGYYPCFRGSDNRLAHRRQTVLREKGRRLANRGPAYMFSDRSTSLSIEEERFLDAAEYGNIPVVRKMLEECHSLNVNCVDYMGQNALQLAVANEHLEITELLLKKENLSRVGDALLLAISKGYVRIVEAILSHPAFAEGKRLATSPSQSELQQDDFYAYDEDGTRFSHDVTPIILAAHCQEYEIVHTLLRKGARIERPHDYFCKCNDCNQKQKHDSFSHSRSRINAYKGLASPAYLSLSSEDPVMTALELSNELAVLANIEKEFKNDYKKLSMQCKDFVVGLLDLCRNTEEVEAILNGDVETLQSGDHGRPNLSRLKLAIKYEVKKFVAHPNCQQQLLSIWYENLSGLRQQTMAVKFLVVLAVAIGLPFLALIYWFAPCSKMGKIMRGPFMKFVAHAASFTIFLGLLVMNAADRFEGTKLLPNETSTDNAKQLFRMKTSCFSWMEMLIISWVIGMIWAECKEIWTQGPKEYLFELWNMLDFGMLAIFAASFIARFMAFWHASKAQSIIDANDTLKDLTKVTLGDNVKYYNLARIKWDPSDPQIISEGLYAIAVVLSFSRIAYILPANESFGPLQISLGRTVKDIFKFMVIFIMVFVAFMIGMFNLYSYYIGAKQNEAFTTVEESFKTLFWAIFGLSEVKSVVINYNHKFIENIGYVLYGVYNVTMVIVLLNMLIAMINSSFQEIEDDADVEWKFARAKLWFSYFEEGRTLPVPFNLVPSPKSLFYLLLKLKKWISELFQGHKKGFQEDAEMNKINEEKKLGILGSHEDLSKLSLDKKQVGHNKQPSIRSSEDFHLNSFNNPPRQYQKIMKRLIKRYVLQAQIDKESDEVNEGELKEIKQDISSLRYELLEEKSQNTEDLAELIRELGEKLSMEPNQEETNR
Protocol: The binding ability of the compounds of the present invention (as exemplified by the compounds obtained in Examples 1 to 3) to the TRPC6 protein was determined using the microscale thermophoresis (MST) method. The method was as follows:
(§1) Preparation and labelling of protein solution: TRPC6 protein dry powder (Alomone Labs, Israel) was prepared into a protein mother solution at a concentration of 10 μM using PBS-Buffer, and 35 μL of the protein stock solution was taken to the Buffer exchange A column, and centrifuged to obtain the Tris-removed protein. 34 μL Labelling Buffer was added to the Tris-removed protein according to the instructions of the Protein Fluorescent Labelling Kit (model L001). After mixing well, 3 μL of NT-647-NHS fluorescent dye was added and thus obtained mixture was incubated for 20 minutes. The protein-dye mixture was transferred to the purification B column, 300 μL of PBS-Buffer was added, and the target protein, i.e. fluorescent labelled protein TRPC6, was collected by centrifugation (with a final concentration of about 2 μM). 180 μL of target protein was mixed with 1620 μL of PBS-Buffer, and then 9 μl of Tween-20 were added thereto. Thus the resulting mixture was mixed and then centrifuged to obtain the target protein solution.
Preparation of compound solutions: the compounds were prepared separately with DMSO to storage solutions with a concentration of 10 μM. 10 μL of each storage solution was placed in a […] EP tube, 90 μL of PBS was added thereto and the resulting mixture was thoroughly mixed to prepare 100 μL of working solution at a concentration of 1 μM for later use. Ligand gradient dilutions were made for a total of 16 concentrations, and 10 μL of 10% DMSO-Buffer was added to each of the 15 gradients except gradient 1, followed by the addition of 10 μL of ligand working solution to gradients 1 and 2, respectively. The liquid in tube 2 was mixed and then 10 μL therein was taken into tube 3, and dilution was carried out in this manner until tube 16. […]

[2] = target: TRPC1 protein (Homo sapiens, UniProt P48995); test: MST binding to TRPC1 protein; details: for Kd: MST; for affinity strength to TRPC6 protein higher than to TRPC1 protein: MST Kd ratio
TRPC1 protein, sequence (P48995 whole entry, species assumed): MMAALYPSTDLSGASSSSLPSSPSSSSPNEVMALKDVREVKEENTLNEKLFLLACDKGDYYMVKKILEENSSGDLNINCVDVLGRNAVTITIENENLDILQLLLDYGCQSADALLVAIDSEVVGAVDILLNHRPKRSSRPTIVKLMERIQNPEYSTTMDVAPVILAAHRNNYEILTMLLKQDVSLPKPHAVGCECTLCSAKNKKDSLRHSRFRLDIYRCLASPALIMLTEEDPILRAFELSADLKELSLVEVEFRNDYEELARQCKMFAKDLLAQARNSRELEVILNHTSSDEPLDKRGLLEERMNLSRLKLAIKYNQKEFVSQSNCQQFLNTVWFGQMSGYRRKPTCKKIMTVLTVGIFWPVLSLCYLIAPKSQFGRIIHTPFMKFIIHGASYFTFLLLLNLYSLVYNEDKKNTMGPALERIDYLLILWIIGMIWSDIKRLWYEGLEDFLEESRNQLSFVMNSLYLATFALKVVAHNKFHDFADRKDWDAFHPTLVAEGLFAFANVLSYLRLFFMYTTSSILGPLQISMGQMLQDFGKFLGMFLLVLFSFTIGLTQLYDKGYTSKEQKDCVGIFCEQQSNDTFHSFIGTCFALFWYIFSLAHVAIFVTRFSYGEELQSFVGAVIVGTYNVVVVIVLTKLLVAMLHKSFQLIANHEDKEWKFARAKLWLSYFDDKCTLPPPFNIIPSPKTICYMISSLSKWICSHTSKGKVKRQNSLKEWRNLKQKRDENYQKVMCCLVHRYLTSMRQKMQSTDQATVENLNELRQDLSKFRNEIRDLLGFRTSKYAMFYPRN
Protocol: as §1
Preparation of compound solutions: the compounds were prepared separately with DMSO to storage solutions with a concentration of […]. 10 μL of each storage solution was placed in a […] EP tube, 90 μL of PBS was added thereto and the resulting mixture was thoroughly mixed to prepare 100 μL of working solution at a concentration of 1 μM for later use. Ligand gradient dilutions were made for a total of 16 concentrations, and 10 μL of 10% DMSO-Buffer was added to each of the 15 gradients except gradient 1, followed by the addition of 10 μL of ligand working solution to gradients 1 and 2, respectively. The liquid in tube 2 was mixed and then 10 μL therein was taken into tube 3, and dilution was carried out in this manner until tube 16. Tube 16 was mixed and 10 μL therein was taken and discarded, and the remainder was kept for later use.
Detection and analysis: 10 μL of protein solution was added to the 16 compound gradient dilutions respectively and mixed, and the resultant mixtures were transferred to capillary tubes sequentially to start detection on machine. After loading the data, the MST analysis model and Kd Model were selected to obtain the fitting curve and dissociation constant (Kd).
The binding ability of the compounds of the present invention (as exemplified by the compounds 1-1 and 2-1 obtained in Examples 1 and 3) for other TRPC proteins (e.g., TRPC1, TRPC3, TRPC4, TRPC5, and TRPC7) was determined using the microscale thermophoresis (MST) method. The method was as follows:
The affinity of the compounds of the present invention with TRPC1, TRPC3, TRPC4, TRPC5 and TRPC7 proteins, respectively, was determined by the same method as in Example 5.

With `Cn1c(C(=O)NCCC(=O)O)cc2ccccc21` [3-[(1-methyl-1H-indole-2-carbonyl)amino]propionic acid, reference compound] the Kd [1] was 29.78 ± 0.26 µM, the Kd [2] was 1.94 µM and the “affinity strength to TRPC6 protein higher than to TRPC1 protein” value (“affinity strength” for short) [2] was 65 fold.
`CC(=O)OCCCNC(=O)c1c(C=O)c2ccccc2n1C` [compound 1-1, propyl 3-[(3-formyl-1-methyl-1H-indole-2-carbonyl)amino]acetate] was tested, and the Kd [1] was 12 ± 3.61 µM, the Kd [2] was 2.94 µM and the “affinity strength” value [2] was 245 fold.
`Cn1c(C(=O)NCCCOC(=O)c2ccccc2)c(C=O)c2ccccc21` [compound 2-1] was tested, and the Kd [1] was 19 ± 3.15 µM, the Kd [2] was 2.4 µM and the “affinity strength” value [2] was 155 fold.
